As for `CC1CCN(C2CCN(S(=O)(=O)c3ccc(Br)cc3OC(F)(F)F)CC2)CC1` [compound 45, 1′-((4-Bromo-2-(trifluoromethoxy)phenyl)sulfonyl)-4-methyl-1,4′-bipiperidine], the melting point (in general, the temperature of the solid-liquid transition) is 108 to 110 °C.

In turn, `CC1CCN(C2CCN(S(=O)(=O)c3cncc(Br)c3)CC2)CC1` [compound 75, 1′-((5-Bromopyridin-3-yl)sulfonyl)-4-methyl-1,4′-bipiperidine] returned a melting point of 171 to 173 °C.

The compound `CC1CCN(C2CCN(S(=O)(=O)c3ccccc3Br)CC2)CC1` [compound 30, 1′-((2-Bromophenyl)sulfonyl)-4-methyl-1,4′-bipiperidine] gave a melting point of 82 to 84 °C. As for `CC1CCN(C2CCN(S(=O)(=O)c3cccnc3)CC2)CC1` [compound 71, 4-Methyl-1′-(pyridin-3-ylsulfonyl)-1,4′-bipiperidine], the figure is 144 to 147 °C.

In the case of `CC1CCN(C2CCN(S(=O)(=O)c3ccc(Br)cc3)CC2)CC1` [compound 17, 1′-((4-Bromophenyl)sulfonyl)-4-methyl-1,4′-bipiperidine], the melting point was 165 to 168 °C. `Cc1ccc(C2CCN(S(=O)(=O)c3c(C)cc(C)cc3C)CC2)cc1` [compound 115, 1-(Mesitylsulfonyl)-4-(p-tolyl)piperidine] returned a melting point of 87 to 90 °C. For the compound `CC1CCN(C2CCN(S(=O)(=O)c3ccc(C(C)C)cc3)CC2)CC1` [compound 13, 1′-((4-Isopropylphenyl)sulfonyl)-4-methyl-1,4′-bipiperidine], the melting point is 144 to 147 °C. In turn, `CC1CCN(C2CCN(S(=O)(=O)c3ccc(-c4ccc(Cl)cc4)cc3)CC2)CC1` [compound 57, 1′-((4′-Cloro-[1,1′-biphenyl]-4-yl)sulfonyl)-4-methyl-1,4′-bipiperidine] gave a melting point of 205 to 207 °C. As for `Cc1cc(C)c(S(=O)(=O)N2CCC(N3CCC(C)CC3)CC2)c(C)c1` [compound 47, 1′-(Mesitylsulfonyl)-4-methyl-1,4′-bipiperidine], the figure is 62 to 65 °C; as for `CC1CCN(C2CCN(S(=O)(=O)c3cc(Cl)cc(Cl)c3)CC2)CC1` [compound 42, 1′-((3,5-Dichlorophenyl)sulfonyl)-4-methyl-1,4′-bipiperidine], 128 to 131 °C. As for `CC1CCN(C2CCN(S(=O)(=O)c3cc(F)c(Br)c(F)c3)CC2)CC1` [compound 50, 1′-((4-Bromo-3,5-difluorophenyl)sulfonyl)-4-methyl-1,4′-bipiperidine], the figure is 161 to 163 °C; as for `CC1CCN(C2CCN(S(=O)(=O)c3cn(C)cn3)CC2)CC1` [compound 78, 4-Methyl-1′-((1-methyl-1H-imidazol-4-yl)sulfonyl)-1,4′-bipiperidine], 139 to 142 °C.

Take `CC1CCN(C2CCN(S(=O)(=O)c3cccc(C(F)(F)F)c3)CC2)CC1` [compound 27, 4-Methyl-1′-((3-(trifluoromethyl)phenyl)sulfonyl)-1,4′-bipiperidine]: the melting point was 123 to 125 °C. As for `C#CCC1CCN(C2CCN(S(=O)(=O)c3ccc(Br)cc3)CC2)CC1` [compound 92, 1′-((4-Bromophenyl)sulfonyl)-4-(prop-2-yn-1-yl)-1,4′-bipiperidine], the figure is 161 to 164 °C; as for `COc1ccc(-c2cccc(S(=O)(=O)N3CCC(N4CCC(C)CC4)CC3)c2)cc1` [compound 63, 1′-((4′-Methoxy-[1,1′-biphenyl]-3-yl)sulfonyl)-4-methyl-1,4′-bipiperidine], 107 to 109 °C. As for `CC1CCN(C2CCN(S(=O)(=O)c3ccc(C(C)(C)C)cc3)CC2)CC1` [compound 14, 1′-((4-(Tert-butyl)phenyl)sulfonyl)-4-methyl-1,4′-bipiperidine], the figure is 173 to 176 °C; as for `CC1CCN(C2CCN(S(=O)(=O)c3cccc(-c4ccc(Cl)cc4)c3)CC2)CC1` [compound 62, 1′-((4′-Chloro-[1,1′-biphenyl]-3-yl)sulfonyl)-4-methyl-1,4′-bipiperidine], 124 to 126 °C; as for `CC1CCN(C2CCN(S(=O)(=O)c3ccc(-c4ccccc4)cc3)CC2)CC1` [compound 56, 1′-([1,1′-Biphenyl]-4-ylsulfonyl)-4-methyl-1,4′-bipiperidine], 178 to 181 °C. As for `CC1CCN(C2CCN(S(=O)(=O)c3ccc(F)cc3F)CC2)CC1` [compound 44, 1′-((2,4-Difluorophenyl)sulfonyl)-4-methyl-1,4′-bipiperidine], the figure is 165 to 168 °C; as for `CCc1ccc(S(=O)(=O)N2CCC(N3CCC(C)CC3)CC2)cc1` [compound 12, 1′-((4-Ethylphenyl)sulfonyl)-4-methyl-1,4′-bipiperidine], 108 to 110 °C. As for `CC1CCN(C2CCN(S(=O)(=O)c3cc(Br)cc4c3OCC4)CC2)CC1` [compound 86, 1′-((5-Bromo-2,3-dihydrobenzofuran-7-yl)sulfonyl)-4-methyl-1,4′-bipiperidine], the melting point fell in the range of 128 to 132 °C.

Turning to `Cc1cc(C)cc(-c2cccc(S(=O)(=O)N3CCC(N4CCC(C)CC4)CC3)c2)c1` [compound 69, 1′-((3′,5′-Dimethyl-[1,1′-biphenyl]-3-yl)sulfonyl)-4-methyl-1,4′-bipiperidine], the melting point lay within 120 to 123 °C. As for `CC1CCN(C2CCN(S(=O)(=O)c3ccc(C#N)cc3)CC2)CC1` [compound 9, 4-((4-Methyl-[1,4′-bipiperidin]-1′-yl)sulfonyl)benzonitrile], the figure is 184 to 186 °C; as for `Cc1cc(C)c(S(=O)(=O)N2CCC(C=O)CC2)c(C)c1` [compound 138, 1-(mesitylsulfonyl)piperidine-4-carbaldehyde], 71 to 74 °C; as for `CC1CCN(C2CCN(S(=O)(=O)c3cccc4cnccc34)CC2)CC1` [compound 90, 5-((4-Methyl-[1,4′-bipiperidin]-1′-yl)sulfonyl)isoquinoline], 123 to 126 °C. As to `CC1CCN(C2CCN(S(=O)(=O)c3ccc(Cl)cc3Cl)CC2)CC1` [compound 41, 1′-((2,4-Dichlorophenyl)sulfonyl)-4-methyl-1,4′-bipiperidine], the melting point was in the range of 75 to 78 °C. `Cc1cc(C)c(S(=O)(=O)N2CCC(C(=O)N3CCC(C)CC3)CC2)c(C)c1` [compound 113, (1-(Mesitylsulfonyl)piperidin-4-yl 4-methylpiperidin-1-yl)methanone] registered a melting point of 122 to 124 °C. With `Cc1noc(C)c1S(=O)(=O)N1CCC(N2CCC(C)CC2)CC1` [compound 79, 3,5-Dimethyl-4-((4-methyl-[1,4′-bipiperidin]-1′-yl)sulfonyl)isoxazole], the melting point lay within 158 to 161 °C. As for `COc1cccc(S(=O)(=O)N2CCC(N3CCC(C)CC3)CC2)c1` [compound 23, 1′-((3-Methoxyphenyl)sulfonyl)-4-methyl-1,4′-bipiperidine], the figure is 81 to 83 °C. In the case of `CC1CCN(C2CCN(S(=O)(=O)c3sc(Cl)nc3C3CC3)CC2)CC1` [compound 82, 2-Chloro-4-cyclopropyl-5-((4-methyl-[1,4′-bipiperidin]-1′-yl)sulfonyl)thiazole], the melting point was 139 to 141 °C. `CC1CCN(C2CCN(S(=O)(=O)c3ccccc3)CC2)CC1` [compound 5, 4-methyl-1′-(phenylsulfonyl)-1,4′-bipiperidine] showed a melting point of 154 to 156 °C. On to `CC1CCN(C2CCN(S(=O)(=O)c3cnc(Cl)s3)CC2)CC1` [compound 80, 2-Chloro-5-((4-methyl-[1,4′-bipiperidin]-1′-yl)sulfonyl)thiazole], for which the melting point lay within 141 to 143 °C. As for `CC1CCN(CC2CCN(S(=O)(=O)c3ccc(-c4ccccc4F)cc3)CC2)CC1` [compound 154, 1-((2′-fluoro-[1,1′-biphenyl]-4-yl)sulfonyl)-4-((4-methylpiperidin-1-yl)methyl)piperidine], the figure is 136 to 139 °C. As to `Cc1cc(C)c(S(=O)(=O)N2CCN(C3CN4CCC3CC4)CC2)c(C)c1` (stereo not shown) [compound 127, 3-(4-(Mesitylsulfonyl)piperazin-1-yl)quinuclidine], the melting point was above 300 °C.

As for `CC1CCN(CC2CCN(S(=O)(=O)c3ccc(-c4ccccc4)cc3)CC2)CC1` [compound 155, 1-([1,1′-biphenyl]-4-ylsulfonyl)-4-((4-methylpiperidin-1-yl)methyl)piperidine], the melting point lay in the range of 148 to 151 °C. As for `CC1CCN(C2CCN(S(=O)(=O)c3ccc(OCc4ccccc4)cc3)CC2)CC1` [compound 20, 1′-((4-(Benzyloxy)phenyl)sulfonyl)-4-methyl-1,4′-bipiperidine], the melting point was in the range of 157 to 159 °C. As for `CC1CCN(C2CCN(S(=O)(=O)c3ccc(Cl)nc3)CC2)CC1` [compound 74, 1′-((6-Chloropyridin-3-yl)sulfonyl)-4-methyl-1,4′-bipiperidine], the figure is 178 to 182 °C; as for `CC1CCN(C2CCN(S(=O)(=O)c3ccc(Cl)c(Cl)c3)CC2)CC1` [compound 40, 1′-((3,4-Dichlorophenyl)sulfonyl)-4-methyl-1,4′-bipiperidine], 160 to 162 °C; as for `CC1CCN(C2CCN(S(=O)(=O)c3ccc([N+](=O)[O-])cc3)CC2)CC1` [compound 7, 4-Methyl-1′-((4-nitrophenyl)sulfonyl)-1,4′-bipiperidine], 165 to 168 °C. As for `CC1CCN(C2CCN(S(=O)(=O)c3cccc(Br)c3)CC2)CC1` [compound 29, 1′-((3-Bromophenyl)sulfonyl)-4-methyl-1,4′-bipiperidine], the figure is 125 to 126 °C. As for `CC1CCN(C2CCN(S(=O)(=O)c3cn(C)c(=O)n(C)c3=O)CC2)CC1` [compound 76, 1,3-Dimethyl-5-((4-methyl-[1,4′-bipiperidin]-1′-yl)sulfonyl)pyrimidine-2,4(1H,3H)-dione], the figure is 212 to 215 °C. Consider `Cc1cc(C)c(S(=O)(=O)N2CCC(N3CCC(O)CC3)CC2)c(C)c1` [compound 101, 1′-(Mesitylsulfonyl)-[1,4′-bipiperidin]-4-ol], for which the melting point fell in the range of 120 to 123 °C.

`CC1CCN(C2CCN(S(=O)(=O)c3ccc(OC(F)(F)F)cc3)CC2)CC1` [compound 21, 4-Methyl-1′-((4-(trifluoromethoxy)phenyl)sulfonyl)-1,4′-bipiperidine] returned a melting point of 168 to 170 °C.

For the origin of these results see US20220024891A1 (The Board of Regents of the University of Texas System, priority 2018, published 2022).
